# Laboratory results from publication PMC10073729, “Synthesis, radiolabeling, and evaluation of 68Ga-labeled aminoquinoxaline derivative as a potent PFKFB3-targeted PET tracer” (Frontiers in Chemistry, 2023).
# Like-named read-outs stand apart in the source and are kept apart here.
# How the values were obtained:
# [1] = biological target: T1, Human Recombinant PFKFB3 Protein (His and GST Tag) (Homo sapiens, UniProt Q16875); experiment: ADP-Glo-based PFKFB3 enzymatic activity inhibition assay; format: biochemical; settings: triplicate
# T1 construct: His; GST; purchased SinoBiological
# Text: All regents used in this section were purchased from Sigma, and the Human Recombinant PFKFB3 Protein (His and GST Tag) was purchased from SinoBiological. The ADP-Glo™ Kinase Assay kit was also obtained from Promega.
# The PFKFB3 enzymatic activity assay followed an identical procedure used in previously published literature, along with the same regents and materials ([Boutard et al., 2019]).
# [2] = tested on: F2,6BP production in HCT116 cells; experiment: Cellular inhibition assay: F2,6BP production in glucose-starved, restimulated HCT116 cells; format: cell-based; settings: Homo sapiens, HCT-116, 25 mM glucose restimulation 4 h, triplicate
# Protocol: For the cellular inhibition assay, the protocol used in this section was also from the same literature as the PFKFB3 enzymatic activity assay, with minor modifications ([Boutard et al., 2019]). Briefly, glucose-starved HTC116 cells were pretreated with diluted compounds at different concentrations and restimulated with 25 mM glucose for 4 h to trigger glycolytic flux. Cells were then lysed by NaOH ([…]) under 85°C for 10 min and transferred to a HEPES solution (20 mM) neutralized by acetic acid (1 M) to pH 7.5–8.0. The lysates (equal amounts, normalized to protein level) were reacted in a mixture of α-glycerophosphate dehydrogenase (0.17 U), aldolase (0.083 U), pyrophosphate-dependent fructose-6-phosphate kinase from potato (0.17 U) and triosephosphate isomerase (0.83 U) in Tris (pH 8.0), glucose-6-phosphate (17 mM), fructose-6-phosphate (2.5 mM) and magnesium chloride (5.5 mM) in a total volume of 100 µL. The reaction was induced by the addition of NADH (0.14 mM) under 30°C, and the absorbance at 340 nm was measured 30 min post addition. All absorbances for reaction mixtures for test compounds with different concentrations were recorded and used for IC50 calculations in GraphPad Prism 5.0 software.
# [3] = tested on: PFKFB3; settings: 2019, cited from earlier work
# [4] = representative PFKFB3 inhibitors, Figure 1, ref Boyd et al., 2015, Boutard et al., Wang et al., 2020, read-out: IC50 (PFKBF3)
# T1 sequence (Q16875 whole entry): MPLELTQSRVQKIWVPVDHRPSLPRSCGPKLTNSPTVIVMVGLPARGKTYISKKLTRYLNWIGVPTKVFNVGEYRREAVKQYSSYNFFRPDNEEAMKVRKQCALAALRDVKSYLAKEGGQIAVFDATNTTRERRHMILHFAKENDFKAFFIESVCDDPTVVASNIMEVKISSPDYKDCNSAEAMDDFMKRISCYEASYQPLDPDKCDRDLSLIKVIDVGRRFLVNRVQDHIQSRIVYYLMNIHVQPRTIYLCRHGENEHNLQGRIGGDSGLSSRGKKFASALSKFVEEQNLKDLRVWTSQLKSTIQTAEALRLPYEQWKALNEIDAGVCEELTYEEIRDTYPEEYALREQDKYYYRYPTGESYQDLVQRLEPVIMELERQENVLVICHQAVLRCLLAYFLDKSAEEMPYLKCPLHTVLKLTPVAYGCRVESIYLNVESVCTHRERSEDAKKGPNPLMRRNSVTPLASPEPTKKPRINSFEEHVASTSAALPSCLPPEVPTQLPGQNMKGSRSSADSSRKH
Compound,IC50 [1],IC50 [2],"IC50 ([3]; ref Boutard et al., read-out: IC50 enzymatic PFKFB3 inhibition (reported))","IC50 [3, 4]"
"Cn1ccc2ccc(-c3cc(Nc4cncc(C(=O)NC5CCCN(C(=O)CCC(C(=O)O)N6CCN(CC(=O)O)CCN(CC(=O)O)CCN(CC(=O)O)CC6)C5)c4)cc4nccnc34)cc21 (centres unmarked) [compound 5, 2,2′,2′′-(10-(1-carboxy-4-(3-(5-((8-(1-methyl-1H-indol-6-yl)quinoxalin-6-yl)amino)nicotinamido)piperidin-1-yl)-4-oxobutyl)-1,4,7,10-tetraazacyclododecane-1,4,7-triyl) triacetic acid]",12.5 ± 4.5 nM,5300 ± 1400 nM,,
CN1CCCC(NC(=O)c2cncc(Nc3cc(-c4ccc5ccn(C)c5c4)c4nccnc4c3)c2)C1 (centres unmarked) [compound 4],6.7 ± 2.3 nM,2300 ± 800 nM,2 nM,
Cc1c(S(=O)(=O)Nc2cccc(-c3nnn[nH]3)c2)oc2ccc(C(C)C)cc12 [compound 2],,,,80 nM
CC(C)OC(=O)c1cccc(-c2cc(S(=O)(=O)Nc3ccc(C(=O)O)c(O)c3)sc2Cl)c1 [compound 1],,,,150 nM
Cc1noc(C)c1Cn1nc(C#N)c2cc(Oc3ccc(NC(=O)[C@@H]4CCCN4)cc3)ccc21 [compound 3],,,,3 nM
